Data: patent US11331299B2, “Medicinal use of serrulatane diterpenes” (The University of Sydney, priority 2016, dated 2022)
Several values for one entry are separate records, joined by “and”; a condition that tells them apart may be missing. Identical values can stand only once.

Tests used:
[1] = target: HDAC9 (h) (Homo sapiens, UniProt Q9UKV0); assay: Epigenetic enzyme assay, Histone deacetylase (HDACs); type: biochemical; settings: read-out: % Inhibition of Control Values
[2] = target: T1, Epidermal Growth Factor (EGF) (Homo sapiens, UniProt P00533); assay: Epidermal Growth Factor (EGF) radio ligand binding; settings: assay year 2015, read-out: % Control Response
T1 construct: Human A431 cells; endogenous in cells; host or cells: A431 cells
T1 sequence (P00533 25-1210): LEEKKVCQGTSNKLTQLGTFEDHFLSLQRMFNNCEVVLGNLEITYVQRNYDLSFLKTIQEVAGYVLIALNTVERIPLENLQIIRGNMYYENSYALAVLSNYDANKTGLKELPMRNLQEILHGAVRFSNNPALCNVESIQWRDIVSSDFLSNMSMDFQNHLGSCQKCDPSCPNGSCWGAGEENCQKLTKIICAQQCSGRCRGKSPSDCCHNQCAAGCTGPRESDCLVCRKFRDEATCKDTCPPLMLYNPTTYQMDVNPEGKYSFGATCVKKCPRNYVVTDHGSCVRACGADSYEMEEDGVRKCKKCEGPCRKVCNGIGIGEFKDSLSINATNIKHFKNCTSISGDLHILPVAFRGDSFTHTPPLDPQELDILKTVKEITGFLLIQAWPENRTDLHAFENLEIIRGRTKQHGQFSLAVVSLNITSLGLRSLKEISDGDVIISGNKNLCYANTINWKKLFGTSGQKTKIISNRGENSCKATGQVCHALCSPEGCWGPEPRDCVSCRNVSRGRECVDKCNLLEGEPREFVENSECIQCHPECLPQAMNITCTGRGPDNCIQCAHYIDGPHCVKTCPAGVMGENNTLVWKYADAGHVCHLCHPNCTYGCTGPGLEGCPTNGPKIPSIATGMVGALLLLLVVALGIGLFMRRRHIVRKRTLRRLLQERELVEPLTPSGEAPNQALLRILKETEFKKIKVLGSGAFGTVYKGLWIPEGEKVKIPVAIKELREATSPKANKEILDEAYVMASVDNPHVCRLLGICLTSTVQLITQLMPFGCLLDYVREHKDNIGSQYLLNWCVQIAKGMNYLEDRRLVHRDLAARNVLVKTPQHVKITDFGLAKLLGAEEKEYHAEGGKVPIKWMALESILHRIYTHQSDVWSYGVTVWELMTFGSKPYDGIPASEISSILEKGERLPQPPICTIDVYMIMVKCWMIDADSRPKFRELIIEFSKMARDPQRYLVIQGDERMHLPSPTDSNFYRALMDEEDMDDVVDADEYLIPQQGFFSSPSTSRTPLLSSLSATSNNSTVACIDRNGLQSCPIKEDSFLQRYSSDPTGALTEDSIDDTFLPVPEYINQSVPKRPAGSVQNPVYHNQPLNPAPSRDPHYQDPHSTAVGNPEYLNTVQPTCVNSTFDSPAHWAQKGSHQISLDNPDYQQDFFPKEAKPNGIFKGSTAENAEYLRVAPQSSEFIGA
Procedure: The in vitro pharmacological studies were conducted by Eurofins PanLab (Taiwan) using the parameters shown in Table 13 with respect to appropriate literature references.

[3] = target: Guanidinoacetate N-methyltransferase (h) (Homo sapiens, UniProt Q14353); assay: Epigenetic enzyme assay, Small molecule methyltransferases; type: biochemical; settings: read-out: % Inhibition of Control Values
[4] = target: JMJD3 (h) (Homo sapiens, UniProt O15054); assay: Epigenetic enzyme assay, Demethylases (KDMs); type: biochemical; settings: for inhibition at 10 µM: read-out: % Inhibition of Control Values
Sequence of JMJD3 (h) (O15054 whole entry): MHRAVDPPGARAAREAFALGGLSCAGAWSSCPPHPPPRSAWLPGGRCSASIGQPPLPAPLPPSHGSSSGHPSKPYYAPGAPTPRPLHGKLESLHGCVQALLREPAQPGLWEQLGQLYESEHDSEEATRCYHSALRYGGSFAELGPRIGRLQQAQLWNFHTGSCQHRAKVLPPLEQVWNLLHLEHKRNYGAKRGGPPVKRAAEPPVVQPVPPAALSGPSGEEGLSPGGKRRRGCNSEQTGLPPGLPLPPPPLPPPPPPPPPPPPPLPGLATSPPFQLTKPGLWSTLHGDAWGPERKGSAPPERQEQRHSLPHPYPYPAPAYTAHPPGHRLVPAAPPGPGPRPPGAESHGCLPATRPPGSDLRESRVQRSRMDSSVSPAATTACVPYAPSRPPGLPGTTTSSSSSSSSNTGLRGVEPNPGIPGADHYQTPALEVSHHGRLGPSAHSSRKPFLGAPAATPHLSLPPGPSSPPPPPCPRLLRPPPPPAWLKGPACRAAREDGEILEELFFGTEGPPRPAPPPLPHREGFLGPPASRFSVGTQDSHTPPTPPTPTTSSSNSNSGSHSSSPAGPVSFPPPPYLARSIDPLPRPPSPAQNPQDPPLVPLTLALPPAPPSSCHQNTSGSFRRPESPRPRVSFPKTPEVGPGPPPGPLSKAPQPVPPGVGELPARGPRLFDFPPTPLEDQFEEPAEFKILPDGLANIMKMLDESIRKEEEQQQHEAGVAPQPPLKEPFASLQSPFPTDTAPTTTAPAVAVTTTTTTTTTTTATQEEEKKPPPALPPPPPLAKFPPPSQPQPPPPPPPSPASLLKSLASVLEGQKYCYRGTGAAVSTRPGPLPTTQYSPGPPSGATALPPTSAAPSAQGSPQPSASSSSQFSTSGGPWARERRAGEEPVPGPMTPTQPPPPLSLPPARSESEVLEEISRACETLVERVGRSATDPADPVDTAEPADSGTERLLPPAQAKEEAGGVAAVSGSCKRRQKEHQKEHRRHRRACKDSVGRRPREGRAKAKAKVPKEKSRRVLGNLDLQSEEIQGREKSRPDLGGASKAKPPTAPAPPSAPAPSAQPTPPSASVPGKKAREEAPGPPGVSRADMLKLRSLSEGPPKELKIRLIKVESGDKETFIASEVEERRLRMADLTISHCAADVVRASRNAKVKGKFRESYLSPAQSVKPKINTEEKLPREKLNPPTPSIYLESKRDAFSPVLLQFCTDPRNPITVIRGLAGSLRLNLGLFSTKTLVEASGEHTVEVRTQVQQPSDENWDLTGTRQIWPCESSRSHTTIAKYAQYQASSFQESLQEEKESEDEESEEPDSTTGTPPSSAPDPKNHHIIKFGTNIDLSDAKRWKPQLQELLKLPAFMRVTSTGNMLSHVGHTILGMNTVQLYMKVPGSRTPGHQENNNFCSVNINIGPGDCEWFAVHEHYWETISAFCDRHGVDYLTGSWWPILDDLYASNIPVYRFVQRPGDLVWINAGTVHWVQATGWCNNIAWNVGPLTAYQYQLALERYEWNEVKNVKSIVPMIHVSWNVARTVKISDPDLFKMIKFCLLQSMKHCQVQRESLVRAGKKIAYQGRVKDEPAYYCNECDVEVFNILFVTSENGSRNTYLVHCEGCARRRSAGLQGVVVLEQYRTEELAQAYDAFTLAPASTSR

[5] = target: T2, Catechol O-methyltransferase (h) (Homo sapiens, UniProt P21964); assay: Epigenetic enzyme assay, Small molecule methyltransferases; type: biochemical; settings: read-out: % Inhibition of Control Values
T2 sequence (P21964 1-271): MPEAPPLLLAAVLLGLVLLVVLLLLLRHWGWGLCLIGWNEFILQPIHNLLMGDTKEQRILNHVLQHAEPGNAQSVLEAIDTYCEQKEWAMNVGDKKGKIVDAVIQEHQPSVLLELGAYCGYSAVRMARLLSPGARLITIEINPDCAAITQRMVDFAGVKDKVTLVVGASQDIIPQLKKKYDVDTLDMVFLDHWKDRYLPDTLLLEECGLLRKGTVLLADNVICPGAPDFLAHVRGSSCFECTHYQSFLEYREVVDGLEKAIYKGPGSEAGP

[6] = target: T3, JMJD2C (h) (Homo sapiens, UniProt Q9H3R0); assay: Epigenetic enzyme assay, Demethylases (KDMs); type: biochemical; settings: read-out: % Inhibition of Control Values
T3 sequence (Q9H3R0 1-1056): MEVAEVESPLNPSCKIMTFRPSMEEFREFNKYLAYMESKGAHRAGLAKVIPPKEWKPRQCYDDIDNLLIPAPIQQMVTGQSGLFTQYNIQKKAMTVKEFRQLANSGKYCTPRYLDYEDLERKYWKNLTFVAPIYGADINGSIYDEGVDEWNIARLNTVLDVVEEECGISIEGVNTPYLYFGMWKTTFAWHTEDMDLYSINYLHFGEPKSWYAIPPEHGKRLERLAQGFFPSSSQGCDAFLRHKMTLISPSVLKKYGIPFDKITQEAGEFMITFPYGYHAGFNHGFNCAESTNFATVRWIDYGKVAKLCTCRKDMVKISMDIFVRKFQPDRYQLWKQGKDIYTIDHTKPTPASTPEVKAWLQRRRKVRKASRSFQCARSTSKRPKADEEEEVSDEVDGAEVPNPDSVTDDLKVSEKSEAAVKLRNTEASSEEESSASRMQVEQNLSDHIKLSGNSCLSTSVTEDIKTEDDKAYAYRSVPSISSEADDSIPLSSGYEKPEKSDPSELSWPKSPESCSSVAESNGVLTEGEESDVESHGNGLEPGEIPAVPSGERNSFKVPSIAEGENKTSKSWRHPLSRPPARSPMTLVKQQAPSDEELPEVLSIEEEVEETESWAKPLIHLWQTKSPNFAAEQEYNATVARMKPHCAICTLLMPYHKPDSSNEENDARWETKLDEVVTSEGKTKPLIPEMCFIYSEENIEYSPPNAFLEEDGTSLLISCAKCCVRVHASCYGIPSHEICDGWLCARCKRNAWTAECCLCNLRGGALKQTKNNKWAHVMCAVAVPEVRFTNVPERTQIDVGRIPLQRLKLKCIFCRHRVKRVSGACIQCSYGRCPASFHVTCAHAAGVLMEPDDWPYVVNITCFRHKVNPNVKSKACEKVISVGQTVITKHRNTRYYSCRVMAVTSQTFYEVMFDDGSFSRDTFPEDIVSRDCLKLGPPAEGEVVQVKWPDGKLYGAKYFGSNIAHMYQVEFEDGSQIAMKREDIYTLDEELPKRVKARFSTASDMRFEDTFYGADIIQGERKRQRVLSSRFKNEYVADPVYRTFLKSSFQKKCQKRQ

[7] = target: T4, 5-Lipoxygenase (Homo sapiens, UniProt P09917); assay: 5-Lipoxygenase; type: biochemical; settings: for remaining activity at 10 µM: assay year 2015, read-out: % Control Response
T4 construct: host or cells: Insect Sf9 cells
T4 sequence (P09917 1-674): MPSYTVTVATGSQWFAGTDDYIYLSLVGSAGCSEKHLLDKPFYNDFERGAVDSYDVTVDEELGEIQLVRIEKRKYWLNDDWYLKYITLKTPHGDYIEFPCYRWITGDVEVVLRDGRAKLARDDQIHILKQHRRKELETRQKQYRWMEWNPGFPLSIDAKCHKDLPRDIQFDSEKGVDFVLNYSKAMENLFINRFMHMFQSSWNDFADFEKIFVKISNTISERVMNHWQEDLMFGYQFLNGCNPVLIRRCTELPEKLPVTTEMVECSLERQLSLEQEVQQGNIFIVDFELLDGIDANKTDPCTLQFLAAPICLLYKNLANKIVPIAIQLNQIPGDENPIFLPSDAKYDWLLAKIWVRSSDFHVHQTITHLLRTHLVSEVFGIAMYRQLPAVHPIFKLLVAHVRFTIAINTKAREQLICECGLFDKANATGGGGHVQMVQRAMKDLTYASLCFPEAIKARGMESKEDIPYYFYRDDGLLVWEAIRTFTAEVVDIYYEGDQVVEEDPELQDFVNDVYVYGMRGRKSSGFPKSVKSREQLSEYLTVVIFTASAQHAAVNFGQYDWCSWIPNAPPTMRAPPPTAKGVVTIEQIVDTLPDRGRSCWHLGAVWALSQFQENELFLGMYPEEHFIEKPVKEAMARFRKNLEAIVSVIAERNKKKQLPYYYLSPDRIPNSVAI

Sequence of HDAC9 (h) (Q9UKV0 whole entry): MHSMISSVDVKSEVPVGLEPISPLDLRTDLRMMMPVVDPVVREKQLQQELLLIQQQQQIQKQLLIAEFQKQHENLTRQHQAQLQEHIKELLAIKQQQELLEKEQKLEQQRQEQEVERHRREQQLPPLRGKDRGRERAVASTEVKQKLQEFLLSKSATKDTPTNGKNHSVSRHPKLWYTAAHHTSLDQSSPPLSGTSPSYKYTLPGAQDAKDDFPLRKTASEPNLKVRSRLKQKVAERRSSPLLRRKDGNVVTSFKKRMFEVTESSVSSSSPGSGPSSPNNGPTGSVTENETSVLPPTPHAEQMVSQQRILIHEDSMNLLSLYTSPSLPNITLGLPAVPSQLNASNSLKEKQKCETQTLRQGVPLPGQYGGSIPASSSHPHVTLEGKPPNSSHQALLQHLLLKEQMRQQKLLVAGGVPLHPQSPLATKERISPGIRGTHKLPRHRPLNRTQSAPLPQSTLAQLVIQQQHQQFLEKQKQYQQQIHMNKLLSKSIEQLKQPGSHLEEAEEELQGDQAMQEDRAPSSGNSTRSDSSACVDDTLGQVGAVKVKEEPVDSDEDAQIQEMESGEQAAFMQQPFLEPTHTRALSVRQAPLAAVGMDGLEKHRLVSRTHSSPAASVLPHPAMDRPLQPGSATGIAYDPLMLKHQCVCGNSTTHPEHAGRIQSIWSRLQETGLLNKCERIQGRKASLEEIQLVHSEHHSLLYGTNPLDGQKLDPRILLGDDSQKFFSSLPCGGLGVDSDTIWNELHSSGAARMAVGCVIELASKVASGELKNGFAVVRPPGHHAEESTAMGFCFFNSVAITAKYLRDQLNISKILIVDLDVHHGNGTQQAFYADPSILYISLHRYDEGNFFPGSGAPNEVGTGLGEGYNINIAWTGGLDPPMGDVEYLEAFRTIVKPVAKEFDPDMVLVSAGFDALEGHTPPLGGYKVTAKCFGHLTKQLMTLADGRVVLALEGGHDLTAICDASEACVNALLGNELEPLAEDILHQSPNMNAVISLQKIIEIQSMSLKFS

`CC(C)=CCC[C@H](CO)[C@@H]1CC[C@@H](C)c2c1cc(C)c(O)c2O` [Compound 1, 7,8,18-trihydroxyserrulat-14-ene] was tested, and the inhibition at 10 µM [1] was -50%, the remaining activity at 10 µM [2] was -8% and the inhibition at 10 µM [3] was 8%. The “% Inhibition of Control Values” ([4]; 10 μM) was “significant inhibitory activity”, the inhibition at 10 µM ([4]; 10 μM) was 91% and the IC50 ([4]; Table 11, inhibition/concentration-response curve) was 14000 nM. It also gave an inhibition at 10 µM [5] of 6%, an inhibition at 10 µM [6] of 35% and a remaining activity at 10 µM [7] of 79%. For the same molecule, the IC50 ([7]; concentration-response 10 to 0.01 μM) was 2300 nM and 2310 nM.

`CC(C)=CCC[C@@H]1C(O)Oc2c(C)cc(O)c3c2[C@H]1CC[C@H]3C` (stereo partly drawn) [Compound 2, 5,18-epoxyserrulat-14-en-8,18-diol] gave an inhibition at 10 µM [1] of -1%, a remaining activity at 10 µM [2] of -9% and an inhibition at 10 µM [3] of -1%. For the same molecule, the inhibition at 10 µM ([4]; 10 μM) was 9%, the inhibition at 10 µM [5] was 1% and the inhibition at 10 µM [6] was 2%. It also gave a remaining activity at 10 µM [7] of 53%.

`CC(C)=CCC[C@@H]1COc2c(C)cc(O)c3c2[C@H]1CC[C@H]3C` [Compound 3, 5,18-epoxy-8-hydroxyserrulat-14-ene] showed an inhibition at 10 µM [1] of -9%, a remaining activity at 10 µM [2] of 4% and an inhibition at 10 µM [3] of -1%. For the same molecule, the inhibition at 10 µM ([4]; 10 μM) was 11%, the inhibition at 10 µM [5] was 0% and the inhibition at 10 µM [6] was 8%. The remaining activity at 10 µM [7] was 67%.
